Test results reported in PubChem BioAssay (NCI).
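Grown in 96-well plates, cells were treated for 48 hours with each compound at five concentrations. Insufficient inhibition: endpoint recorded as highest concentration tested. At the GI50, growth is halved. TGI denotes the concentration required for complete inhibition of growth.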

Columns and labels:
Assay in all cases: NCI tumour cell line growth inhibition, 48 h
786-0 renal = system: 786-0 renal
A498 renal = system: A498 renal
A549 NSCLC = system: A549 NSCLC
ACHN renal = system: ACHN renal
BT-549 breast = system: BT-549 breast
CAKI-1 renal = system: CAKI-1 renal
CCRF-CEM leukemia = system: CCRF-CEM leukemia
COLO 205 colon = system: COLO 205 colon
DU-145 prostate = system: DU-145 prostate
EKVX NSCLC = system: EKVX NSCLC
HCC-2998 colon = system: HCC-2998 colon
HCT-116 colon = system: HCT-116 colon
HCT-15 colon = system: HCT-15 colon
HL-60(TB) leukemia = system: HL-60(TB) leukemia
HOP-62 NSCLC = system: HOP-62 NSCLC
HOP-92 NSCLC = system: HOP-92 NSCLC
HS 578T breast = system: HS 578T breast
HT29 colon = system: HT29 colon
IGROV1 ovarian = system: IGROV1 ovarian
K-562 leukemia = system: K-562 leukemia
KM12 colon = system: KM12 colon
LOX IMVI melanoma = system: LOX IMVI melanoma
M14 melanoma = system: M14 melanoma
MALME-3M melanoma = system: MALME-3M melanoma
MCF7 breast = system: MCF7 breast
MDA-MB-231 breast = system: MDA-MB-231 breast
MDA-MB-435 = system: MDA-MB-435
MDA-MB-468 breast = system: MDA-MB-468 breast
MOLT-4 leukemia = system: MOLT-4 leukemia

COc1ccc2c3nc4cc(C)c(C)cc4nc3n(CCN(C)C)c2c1
GI50 (786-0 renal): 2.73 µM
TGI (786-0 renal): 10.5 µM
GI50 (A498 renal): 11 µM
TGI (A498 renal): 25.6 µM
GI50 (A549 NSCLC): 1.34 µM
TGI (A549 NSCLC): 3.34 µM
GI50 (ACHN renal): 1.38 µM
TGI (ACHN renal): 4.19 µM
GI50 (BT-549 breast): 2.94 µM
TGI (BT-549 breast): 16.4 µM
GI50 (CAKI-1 renal): 0.981 µM
TGI (CAKI-1 renal): 6.65 µM
GI50 (CCRF-CEM leukemia): 3.47 µM
TGI (CCRF-CEM leukemia): 13.5 µM
GI50 (COLO 205 colon): 5.93 µM
TGI (COLO 205 colon): 20.8 µM
GI50 (DU-145 prostate): 2.74 µM
TGI (DU-145 prostate): 12 µM
GI50 (EKVX NSCLC): 3.34 µM
TGI (EKVX NSCLC): 15.5 µM
GI50 (HCC-2998 colon): 1.31 µM
TGI (HCC-2998 colon): 3.44 µM
GI50 (HCT-116 colon): 1.27 µM
TGI (HCT-116 colon): 2.74 µM
GI50 (HCT-15 colon): 1.31 µM
TGI (HCT-15 colon): 3.54 µM
GI50 (HL-60(TB) leukemia): 1.18 µM
TGI (HL-60(TB) leukemia): 2.95 µM
GI50 (HOP-62 NSCLC): 2.53 µM
TGI (HOP-62 NSCLC): 13 µM
GI50 (HOP-92 NSCLC): 0.452 µM
TGI (HOP-92 NSCLC): 6.02 µM
GI50 (HS 578T breast): 7.19 µM
TGI (HS 578T breast): 32.5 µM
GI50 (HT29 colon): 3.02 µM
TGI (HT29 colon): 12.6 µM
GI50 (IGROV1 ovarian): 1.46 µM
TGI (IGROV1 ovarian): 13.3 µM
GI50 (K-562 leukemia): 1.44 µM
TGI (K-562 leukemia): 4.89 µM
GI50 (KM12 colon): 2.31 µM
TGI (KM12 colon): 11.4 µM
GI50 (LOX IMVI melanoma): 1.09 µM
TGI (LOX IMVI melanoma): 2.28 µM
GI50 (M14 melanoma): 1.32 µM
TGI (M14 melanoma): 2.95 µM
GI50 (MALME-3M melanoma): 1.45 µM
TGI (MALME-3M melanoma): 3.28 µM
GI50 (MCF7 breast): 1.02 µM
TGI (MCF7 breast): 2.95 µM
GI50 (MDA-MB-231 breast): 1.79 µM
TGI (MDA-MB-231 breast): 9.32 µM
GI50 (MDA-MB-435): 2.5 µM
TGI (MDA-MB-435): 11 µM
GI50 (MDA-MB-468 breast): 1.17 µM
TGI (MDA-MB-468 breast): 3.18 µM
GI50 (MOLT-4 leukemia): 2.2 µM
TGI (MOLT-4 leukemia): 7.29 µM
